Laboratory results taken from patent US20150110849A1, “ANTIMICROBIAL ACCESSORY FOR AN IMPLANTABLE MEDICAL DEVICE” (Medtronic, Inc., priority 2009, published 2015).
Where a name gives a salt, the structure may show the parent alone.

Assay: zone of inhibition (ZOI) of antimicrobial accessories
Assay type: cell-based
Text: Examples 30-54 illustrate zone of inhibition (ZOI) data collected for antimicrobial accessories including minocycline HCl and/or rifampin. Various polymers and excipients were used in combination with minocycline HCl and/or rifampin. […] In Table 22, M stands for minocycline HCl, R stands for rifampin, SiO2 is silica, PVP is polyvinylpyrrolidone, BIO-PSA 7-4601 is a silicone PSA available from Dow Corning Corp, Midland, Mich., MDX4-4210 is a liquid silicone rubber available from Dow Corning, Corp., Midland, Mich., LSR Q7-4850 is a liquid silicone rubber available from Dow Corning, Corp., Midland, Mich., and MED-1137 a silicone adhesive available from NuSil Silicone Technology, Carpinteria, Calif.

Structure (SMILES) | Average ZOI [mm]
CN(C)c1ccc(O)c2c1C[C@H]1C[C@H]3[C@H](N(C)C)C(O)=C(C(N)=O)C(=O)[C@@]3(O)C(O)=C1C2=O [Example 30, minocycline HCl] | 16
CO[C@H]1/C=C/O[C@@]2(C)Oc3c(C)c(O)c4c(O)c(c(/C=N/N5CCN(C)CC5)c(O)c4c3C2=O)NC(=O)/C(C)=C\C=C\[C@H](C)[C@H](O)[C@@H](C)[C@@H](O)[C@@H](C)[C@H](OC(C)=O)[C@@H]1C [Example 31, rifampin] | 17
